Columns and labels:
RhlR A44W = target: T1, RhlR A44W (Pseudomonas aeruginosa, UniProt P54292, A44W); test: E. coli prhlA-luxCDABE luciferase reporter assay; type: cell-based; conditions: even at the highest dose of C4HSL tested
T1 construct: expressed in transfected cells; host or cells: E. coli carrying pBAD-A-rhlR mutant, pCS26-prhlA-luxCDABE and pACYC-pqsE or empty pACYC
Text: Previous analysis of the RhlR LBP focused on highly conserved residues that were known from other AHL-binding proteins to be important contacts for AHL molecules, particularly the lactone head group. We performed conservation analyses on 300 LuxR-type receptors to determine variable and moderately conserved residues in the LBP (Fig. 1B) and, in conjunction with our previously determined experimental structure of WT RhlR bound to the synthetic agonist mBTL, used for docking C4- and C6HSL. Based on our docking simulations, C4- and C6HSL occupy a similar position in the LBP as mBTL, a highly efficacious activator of RhlR (Fig. 1C; Fig. S1). We targeted residues A44, G46, T58, L69, Y72, D81, I84, W96, and W108 (Fig. 1B and C). These residues were selected because of their proximity to the acyl tail of C4HSL, as well as the differences in conservation that are observed at these sites. […] Transcription was monitored by light production via the expression of the luxCDABE operon controlled by the RhlR-dependent promoter of rhlA. […]
The range of responses to substitutions is best highlighted by changes at residue T58 (Fig. 2A). […] Indeed, of the LuxR-AHL experimentally determined structures, this region of the LBP is typically occupied by the acyl tail of long-chain AHLs or a hydrophobic residue ([5], [27], [29], [30], [42], [43]), a point we return to in the discussion. […]

RhlR = tested on: RhlR; parameters: method as in PMID 28119451; conditions: cited from earlier work

Compound: CCCC(=O)N[C@H]1CCOC1=O [C4HSL, N-butyryl-L-homoserine lactone]
- activation by C4HSL in the reporter system (RhlR A44W): not activated
- EC50 (RhlR): ~5 µM
